“And” between values parts separate entries of the source, which are not always exact repeats. Equal entries are not always repeated. Where two headings read alike, the source gives them in different places.
What was measured:
[1] = molecular target: T1, PDE9 (catalytic domain of PDE9A2) (Homo sapiens, UniProt O76083); test: Enzymatic assay against PDE9 (3H-cGMP hydrolysis, scintillation counting); format: biochemical; conditions: for inhibition at 0.01 µM: at a concentration of 0.01 μM
T1 construct: PDE9 recombinant catalytic domain (amino acid 181–506); made in house; host or cells: E. coli BL21 (Codonplus)
T1 sequence (O76083 241-566): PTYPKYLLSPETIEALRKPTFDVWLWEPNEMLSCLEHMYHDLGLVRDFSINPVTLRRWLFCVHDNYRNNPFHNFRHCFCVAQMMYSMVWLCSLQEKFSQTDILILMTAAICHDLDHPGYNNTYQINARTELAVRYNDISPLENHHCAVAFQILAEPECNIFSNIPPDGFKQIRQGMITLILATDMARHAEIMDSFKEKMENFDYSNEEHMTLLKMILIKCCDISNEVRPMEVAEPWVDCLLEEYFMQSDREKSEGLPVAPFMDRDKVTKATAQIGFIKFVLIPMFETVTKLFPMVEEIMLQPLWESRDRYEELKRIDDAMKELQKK
Protocol: In brief, E. coli strain BL21 (Codonplus), which carrying with recombinant pET-PDE9A2 plasmid, was grown in LB medium (containing 100 μg/mL ampicillin and 0.4% glucose) at 37 °C until an OD600 achieved 0.6–0.8. Then, the temperature was turned down to 15 °C, and 0.1 mM iso-propyl-b-D-thiogalactopyranoside was added to LB medium to induce the expression of PDE9A2 protein. Bacteria were induced for 20 h and collected for purified PDE9A2 recombinant protein by a Ni-NTA column (Qiagen, Venlo, The Netherlands).
As for the enzymatic assays, ^3H-cGMP (20,000–30,000 cpm, GE Healthcare), the substrate for enzymatic assays against PDE9A2, were diluted in an assay buffer (containing 50 mM Tris-HCl (pH 8.0), 10 mM MgCl2, and 1 mM DTT). And then, the substrate ^3H-cGMP, catalytic domain of PDE9A2, and different concentrations of tested compounds were incubated at room temperature for 15 min. To terminate the reaction, 0.2 M ZnSO4 and 0.2 N Ba(OH)2 were added to the mixture, leaving unreacted ^3H-cGMP in the supernatant. […] Each compound was measured at a minimum of eight concentrations for the IC50 calculation and repeated at least three times.
4.Enzymatic assays against PDE9
The assay buffer contains 50 mM Tris-HCl (pH 8.0), 10 mM MgCl2 or 4 mM MnCl2, 1 mM DTT, and 10-20 nM 3H-cGMP (15000−30000 cpm/assay, CPM control). The reaction was carried out at room temperature for 15 min and then terminated by addition of 0.2 M ZnSO4. The reaction product 3H-GMP was precipitated out by […], whereas unreacted 3H-cGMP remained in the supernatant. The radioactivity in the supernatant was measured in 2.5 […]
(CPMenzyme). For the measurement of IC50 of inhibitors, at least seven concentrations of inhibitors were used in the presence of 3H-cGMP. The enzyme concentration in a range of 10− 100 ng/mL, which hydrolyzed 50- 70% of the substrate, was chosen for each inhibitory assay. The radioactivity was recorded as CPMinhibitor. The IC50 values for PDE9 were calculated using a nonlinear regression analysis.
Inhibition = […] × 100%

[2] = Antioxidant activity, ORAC-FL method; conditions: Trolox as standard
Protocol: The modified Oxygen Radical Absorbance Capacity Fluorescein (ORAC-FL) method was used for antioxidant activity test. In brief, the mixture of test compounds (20 μL) and fluorescein (120 μL, final concentration of 150 nM) was added into a black 96-well plate and incubated for 15 min at 37 °C. Then, 60 μL of 2,2′-azobis(2-amidinopropane) dihydrochloride (AAPH) solution (12 mM) was added rapidly to induce the reaction. The fluorescence with an excitation wavelength of 485 nm and emission at 535 nm was measured in Spectrafluor Plus plate reader (Tecan, Crailsheim, Germany) every minute for 4 h. Integration of the area under the curve (AUC) was […] 1 to 8 μM Trolox was used as a standard. Each compound was tested at 1–10 μM at least in three independent assays. The ORAC-FL values of each compound were calculated according to Equation (1) and expressed as Trolox equivalents.(1) ORAC-FL value=AUCsample−AUCblank/AUCTrolox−AUCblank×ConcentrationTrolox/Concentrationsample

[3] = 0.25 h, read-out: Inhibition ratio against PDE9
[4] = 0.25 h, at a concentration of 0.1 μM, read-out: Inhibition ratio against PDE9
[5] = 6.25 nM, read-out: Inhibition (PDE9 dose-response, single runs)
[6] = 25 nM, read-out: Inhibition (PDE9 dose-response, single runs)
[7] = 50 nM, read-out: Inhibition (PDE9 dose-response, single runs)
[8] = 100 nM, read-out: Inhibition (PDE9 dose-response, single runs)
[9] = 200 nM, read-out: Inhibition (PDE9 dose-response, single runs)
[10] = 400 nM, read-out: Inhibition (PDE9 dose-response, single runs)
[11] = 800 nM, read-out: Inhibition (PDE9 dose-response, single runs)
[12] = 1600 nM, read-out: Inhibition (PDE9 dose-response, single runs)

inhibition at 0.01 µM [1, 3] | inhibition at 0.1 µM [1, 4] | IC50 [1] | Inhibition (PDE9 dose-response, single runs) ([1]; 6.25 nM, 0.00625 µM) | Inhibition (PDE9 dose-response, single runs) ([1]; 12.5 nM, 0.0125 µM) | Inhibition (PDE9 dose-response, single runs) ([1]; 25 nM, 0.025 µM) | Inhibition (PDE9 dose-response, single runs) ([1]; 50 nM, 0.05 µM) | Inhibition (PDE9 dose-response, single runs) ([1]; 100 nM, 0.1 µM) | inhibition at 0.1 µM [1, 8] | Inhibition (PDE9 dose-response, single runs) ([1]; 200 nM, 0.2 µM) | inhibition at 0.2 µM [1, 9] | Inhibition (PDE9 dose-response, single runs) ([1]; 400 nM, 0.4 µM) | inhibition at 0.4 µM [1, 10] | Inhibition (PDE9 dose-response, single runs) ([1]; 800 nM, 0.8 µM) | inhibition at 0.8 µM [1, 11] | Inhibition (PDE9 dose-response, single runs) ([1]; 1600 nM, 1.6 µM) | inhibition at 1.6 µM [1, 12] | SMILES | ORAC [2] | other results
68% | 78% | – | – | – | – | – | – | – | – | – | – | – | – | – | – | – | CC(Cc1c[nH]c2ccccc12)Nc1nc2c(cnn2C2CCCC2)c(=O)[nH]1 (stereo not shown) [Compound 17a, 6-((1-(1H-indol-3-yl)propan-2-yl)amino)-1-cyclopentyl-1,5-dihydro-4H-pyrazolo[3,4-d]pyrimidin-4-one] | 0.37 ± 0.04 μmol of Trolox equiv/μmol tested compound | –
16% | – | 91.1 nM and 91 nM | 9.16% | 9.23% and 4.22% | 21.21% | 34.04% | 49.42% | 55.3% | 66.06% | 67.7% | 76.31% | 82.6% | 86.82% | 90.6% | 94.94% | 95.1% | O=c1[nH]c(NCCc2c[nH]c3ccc(O)cc23)nc2c1cnn2C1CCCC1 [Compound 17b, 1-cyclopentyl-6-((2-(5-hydroxy-1H-indol-3-yl)ethyl)amino)-1,5-dihydro-4H-pyrazolo[3,4-d]pyrimidin-4-one] | – | inhibition at 0.00625 µM [1, 5]: 6.08%; inhibition at 0.025 µM [1, 6]: 24.1%; inhibition at 0.05 µM [1, 7]: 36.3%
84% | – | 1.8 nM | – | – | – | – | – | – | – | – | – | – | – | – | – | – | COc1ccc2[nH]cc(CC(C)Nc3nc4c(cnn4C4CCCC4)c(=O)[nH]3)c2c1 (stereo not shown) [Compound 17c, 1-cyclopentyl-6-((1-(5-methoxy-1H-indol-3-yl)propan-2-yl)amino)-1,5-dihydro-4H-pyrazolo[3,4-d]pyrimidin-4-one] | – | –
13% | – | 89 nM | 13.00% | 26.71% | 28.77% | 37.79% | 60.91% | 61.6% | 75.64% | 77.6% | 87.67% | 90.5% | 94.30% | 96.4% | 97.54% | 108% | COc1ccc2[nH]cc(CC(C)Nc3nc4c(cnn4C4CCOCC4)c(=O)[nH]3)c2c1 (stereo not shown) [Compound 17d, 6-((1-(5-methoxy-1H-indol-3-yl)propan-2-yl)amino)-1-(tetrahydro-2H-pyran-4-yl)-1,5-dihydro-4H-pyrazolo[3,4-d]pyrimidin-4-one] | – | inhibition at 0.00625 µM [1, 5]: 13.8%; inhibition at 0.0125 µM ([1]; 12.5 nM, read-out: Inhibition (PDE9 dose-response, single runs)): 34.7%; inhibition at 0.025 µM [1, 6]: 26.4%; inhibition at 0.05 µM [1, 7]: 43.8%
67% | 83% | – | – | – | – | – | – | – | – | – | – | – | – | – | – | – | CC(CCc1c[nH]c2ccccc12)Nc1nc2c(cnn2C2CCCC2)c(=O)[nH]1 (stereo not shown) [Compound 17e, 6-((4-(1H-indol-3-yl)butan-2-yl)amino)-1-cyclopentyl-1,5-dihydro-4H-pyrazolo[3,4-d]pyrimidin-4-one] | 0.33 ± 0.002 μmol of Trolox equiv/μmol tested compound | –
59% | 67% | – | – | – | – | – | – | – | – | – | – | – | – | – | – | – | CC(CC1CNc2ccccc21)Nc1nc2c(cnn2C2CCCC2)c(=O)[nH]1 (stereo not shown) [Compound 17f, 1-cyclopentyl-6-((1-(indolin-3-yl)propan-2-yl)amino)-1,5-dihydro-4H-pyrazolo[3,4-d]pyrimidin-4-one] | 0.66 ± 0.04 μmol of Trolox equiv/μmol tested compound | –
70% | 82% | – | – | – | – | – | – | – | – | – | – | – | – | – | – | – | CC(Cc1n[nH]c2ccccc12)Nc1nc2c(cnn2C2CCCC2)c(=O)[nH]1 (stereo not shown) [Compound 17g, 6-((1-(1H-indazol-3-yl)propan-2-yl)amino)-1-cyclopentyl-1,5-dihydro-4H-pyrazolo[3,4-d]pyrimidin-4-one] | 0.17 ± 0.004 μmol of Trolox equiv/μmol tested compound | –
65% | 69% | – | – | – | – | – | – | – | – | – | – | – | – | – | – | – | COc1ccc2[nH]nc(CC(C)Nc3nc4c(cnn4C4CCCC4)c(=O)[nH]3)c2c1 (stereo not shown) [Compound 17h, 1-cyclopentyl-6-((1-(5-methoxy-1H-indazol-3-yl)propan-2-yl)amino)-1,5-dihydro-4H-pyrazolo[3,4-d]pyrimidin-4-one] | 0.22 ± 0.12 μmol of Trolox equiv/μmol tested compound | –
– | < 30% | 194 nM | -0.81% and -1.99% | 4.63% and -3.63% | -0.82% and 5.95% | -1.13% and 3.15% | 16.13% | 9.05% | 51.73% | 42.9% | 69.38% | 75.3% | 80.02% | 90.6% | 87.34% | 90.2% | COc1ccc2[nH]cc(CN[C@H](C)c3nc4c(cnn4C4CCCC4)c(=O)[nH]3)c2c1 [Compound 18c, (R)-1-cyclopentyl-6-(1-(((5-methoxy-1H-indol-3-yl)methyl)amino)ethyl)-1,5-dihydro-4H-pyrazolo[3,4-d]pyrimidin-4-one] | – | –
– | – | 214 nM | – | – | – | – | – | – | – | – | – | – | – | – | – | – | COc1ccc2c(c1)c(CN[C@H](C)c1nc3c(cnn3C3CCCC3)c(=O)[nH]1)cn2C [Compound 18d, (R)-1-cyclopentyl-6-(1-(((5-methoxy-1-methyl-1H-indol-3-yl)methyl)amino)ethyl)-1,5-dihydro-4H-pyrazolo[3,4-d]pyrimidin-4-one] | – | Inhibition (PDE9 dose-response, single runs) ([1]; 6.4875 nM, 0.0064875 µM): 4.86% and 1.81%; Inhibition (PDE9 dose-response, single runs) ([1]; 12.975 nM, 0.012975 µM): 9.60%; inhibition at 0.012975 µM ([1]; 12.975 nM, read-out: Inhibition (PDE9 dose-response, single runs)): 4.99%; Inhibition (PDE9 dose-response, single runs) ([1]; 25.95 nM, 0.02595 µM): 11.54%; inhibition at 0.02595 µM ([1]; 25.95 nM, read-out: Inhibition (PDE9 dose-response, single runs)): 16.6%; Inhibition (PDE9 dose-response, single runs) ([1]; 51.9 nM, 0.0519 µM): 21.64%; inhibition at 0.0519 µM ([1]; 51.9 nM, read-out: Inhibition (PDE9 dose-response, single runs)): 20.2%; Inhibition (PDE9 dose-response, single runs) ([1]; 103.8 nM, 0.1038 µM): 34.81%; inhibition at 0.1038 µM ([1]; 103.8 nM, read-out: Inhibition (PDE9 dose-response, single runs)): 33.4%; Inhibition (PDE9 dose-response, single runs) ([1]; 207.6 nM, 0.2076 µM): 49.32%; inhibition at 0.2076 µM ([1]; 207.6 nM, read-out: Inhibition (PDE9 dose-response, single runs)): 54.3%; Inhibition (PDE9 dose-response, single runs) ([1]; 415.2 nM, 0.4152 µM): 80.76%; inhibition at 0.4152 µM ([1]; 415.2 nM, read-out: Inhibition (PDE9 dose-response, single runs)): 86.5%; Inhibition (PDE9 dose-response, single runs) ([1]; 830.4 nM, 0.8304 µM): 88.96%; inhibition at 0.8304 µM ([1]; 830.4 nM, read-out: Inhibition (PDE9 dose-response, single runs)): 93%
